Assay results taken from patent publication US9095537B2, “Therapy of cancer based on targeting adaptive, innate and/or regulatory component of the immune response” (priority 2006, dated 2015).
Read-outs that look alike come from different tables or passages of the source.

How the values were obtained:
[1] = test system: TC-1 cells; assay type: in vivo, C57BL/6 mice; conditions: for survival percentage: TLR ligand given i.v. with 50 ug CyaA-E7 on day 25, pU and CpGs complexed with DOTAP, survival on day 100; for effect on tumor growth of TLR ligand alone: TLR ligand alone without CyaA-E7, day 25; for tumor growth after CTX alone: CTX 2.5 mg i.p. alone, day 24; for mice that totally eradicated their tumors: low dose CTX (2.5 mg i.p.) day 24, 24 h before 50 ug CyaA-E7; for enhancement of the effect of CyaA-E7 by DOX: DOX day 24, intra-tumorally or intravenously, CyaA-E7 day 25; for increase in tumor regression: TLR ligand given with CyaA-E7 on day 25, versus CyaA-E7 alone
Procedure: (§1) Specific pathogen-free 5-week-old female C57BL/6 mice were purchased from Charles River (L'Arbresle, France) and were kept in the Pasteur Institute animal facilities under pathogen-free conditions with water and food ad libitum. C57BL/6-RAG1^−/− mice were obtained from the Jackson Laboratory, USA. Experiments involving animals were conducted according to the institutional guidelines for animal care.
TC-1 cells expressing HPV16-E6 and HPV16-E7 proteins derived from primary mouse lung epithelial cells were obtained from the American Type Culture Collection (LGC Promochem, Molsheim, France) (14). EL4-E7 cells, a mouse lymphoma expressing HPV16-E7 (15). Cells were maintained in RPMI 1640 with GlutaMAX supplemented with 10% heat-inactivated fetal calf serum, 100 units/ml penicillin, 100 μg/ml streptomycin, 0.4 mg/ml geneticin and 5×10^−5 mol/12-mercaptoethanol (Life Technologies, Cergy-Pontoise, France).
(§2) Tumor cells lines (5×10^5 TC-1 cells or 4×10^6 EL4-E7 cells) were inoculated into the shaved left back of C57BL/6 mice in 200 μl volume of PBS. Tumor size, presented as the average of two perpendicular diameters (millimeters), was measured at regular intervals.
CpG ODNs (Type A, CpG 2216: 5′-[…]-3′ (SEQ ID NO: 6); Type B, CpG 1826: 5′-[…]-3′ (SEQ ID NO: 7)) were synthesized by Proligo (Paris, France). Boldface nucleotides correspond to phosphorothioate backbone. Polyuridine (pU) was purchased from Sigma (Steinheim, Germany), R848 from PharmaTech (Shanghai, China) and polyinosinic-polycytidylic acid (PIC) from Invivogen (San Diego, Calif., USA). Thirty μg of CpG ODNs or pU were diluted in 50 μl of Optimen medium (Gibco, Grand Island, N.Y., USA) and mixed with 60 μg of DOTAP (Roche, Mannheim, Germany) diluted in 100 μl of Optimen. The rest of the reagents were diluted in PBS before injection. Cyclophosphamide (CTX) (Sigma, Steinheim, Germany) and doxorubicin (DOX) (Calbiochem, La Jolla, Calif., USA) were diluted respectively in PBS and in sterile water before injection. The different antigenic formulations and adjuvants were injected simultaneously except chemotherapeutic agents that were given 24 h before vaccine. Intravenous administrations were performed by retroorbital injection in a volume of 200 μl, intratumoral administrations were done by injection in a volume of 50 μl and subcutaneous administration were performed in 200 μl.
Tumor growth data were analyzed by non-linear mixed effect models using Monolix software (http://www.math.u-psud.fr/˜lavielle/monolix/). Mean diameters of tumors over time were fitted using the model described in (17) and treatments were compared using the Likelihood Ratio test. Kaplan-Meier plots were used to analyzed survival, and a log rank test was used to examine statistical significance of differences in the survival curves using Prism software (GraphPad Software, Inc. San Diego, USA). Data from in vivo CTL and tetramer staining were compared by ANOVA followed by Dunnett posttest. p values less than 0.05 were considered to be statistically significant.

[2] = test system: T regulatory cells, myeloid suppressor cells, tumor-specific CD8+ T cells and NK cells; experiment: Flow cytometric analysis of immune cells in spleen, draining lymph nodes and tumor after tritherapy; assay type: in vivo, C57BL/6 mice
Procedure: FIG. 9. Changes in immune cells after tritherapy on day 25. […] Groups of mice were sacrificed before treatment (day 0), 24 hour after CTX alone (day 1) or on days 4, 7 or 11 after tritherapy administration. Spleen, tumor draining lymph nodes and tumor were excised, ground to prepare the cell suspensions, stained and analyzed by flow cytometry. Pooled data of two experiments are shown (n=4-6 mice). Bars represent mean values and the error bars correspond to standard error of the mean. *<0.05**<0.01. A) Percentage of CD4^+ cells that express CD25 and FoxP3. B) Percentage of CD4^+ cells that are CD25^− and FoxP3^+. C) Percentage of CD4^+ cells that express FoxP3. D) Percentage of CD8^+ cells that are tetramer^+ and CD44^+. E) Percentage of CD11c^+ cells. F) Percentage of CD11b^+ cells. G) Percentage of GR1^+ cells. H) Percentage of CD11b^+GR1^+ positive cells.
FIG. 11. Phenotype of myeloid cells induced by tritherapy and by tumor growth. […] Tritherapy treated mice received on day 24, 2.5 mg CTX i.p and 24 h later, 50 μg CyaA-E7 and 30 μg CpG-B/DOTAP. PBS treated mice received 200 μl of PBS on day 25. […] Spleens were excised, ground to prepare the cell suspensions, stained and analyzed by flow cytometry. […]
FACScalibur (Becton Dickinson, Franklin Lakes, N.J., USA) was used for flow cytometry and events were analyzed with CELLQuest software (Becton Dickinson, Franklin Lakes, N.J., USA).

[3] = test system: TC-1 cells; conditions: CTX 2.5 mg i.p. day 24; log-rank p=0.22 vs PBS
Procedure: as §1, §2

[4] = test system: E749-57 peptide-pulsed splenocytes; experiment: In vivo killing assay (in vivo CTL); design: species or system C57BL/6 mice; conditions: CTX 24 h before CyaA-E7, tumor-bearing mice day 25
Procedure: FIG. 8. Analysis of tumor specific immune response in control and tumor-bearing mice after different treatments. […] Twenty-five days later, control and tumor-bearing mice were injected with either 50 μg of control CyaA or of CyaA-E7, with PBS or with 30 μg of CpG-B or pU/DOTAP, 25 μg of PIC, 50 μg of R848, 2.5 mg of CTX (24 h before) or with CTX and CpG-B/DOTAP. Percentage of CD8^+ tetramer^+ cells in control (A) and in tumor-bearing mice (B). At day 7 after treatment, mice were sacrificed and the percentage of tetramer positive cells was analyzed by flow cytometry. In vivo CTL in control (C) and in tumor-bearing mice (D). […] Twenty-four hours later, spleens were removed and single-cell suspensions were analyzed by flow cytometry to determine the ratio of CFSE^high to CFSE^low cells. […] In vivo cytolytic activity was low but detected (E and F).
Naïve spleen cells were pulsed for 30 min with 9 μM E749-57 peptide at 37° C. […] Twenty-four hours later, spleens were removed and single-cells suspensions were analyzed by flow cytometry to determine the ratio of CFSE^high to CFSE^low cells. The percentage of specific lysis was calculated as follow: percent-specific lysis=100−(100×(% CFSE^highimmunized/% CFSE^low immunized)/(% CFSE^high control/% CFSE^low control)).

5′-GGGGGACGATCGTCGGGGGG-3′ [CpG-A]
survival percentage [1]: 58%

5′-TCCATGACGTTCCTGACGTT-3′ [CpG-B]
effect on tumor growth of TLR ligand alone [1]: none of these TLR ligands administered alone had any effect on the tumor growth
survival percentage [1]: 50%

O=P1(N(CCCl)CCCl)NCCCO1 (centres unmarked) [CTX, Cyclophosphamide]
antitumor efficacy of combined CTX and CyaA-E7 at higher CTX dose ([1]; 300 mg/kg versus 100 mg/kg CTX i.p. day 24, CyaA-E7 day 25, log-rank p=0.95): not improved
tumor growth after CTX alone [1]: significantly delayed tumor growth but this effect was transient and was followed by tumor relapse
tumor growth after CTX alone ([1]; listed as cyclophosphamide): could transiently control tumor growth but was not able to induce the complete eradication
tumor growth after CTX plus CyaA-E7 ([1]; low dose CTX 24 h before CyaA-E7, day 24/25): delayed growth of all tumors
mice that totally eradicated their tumors [1]: 58%
mice that totally eradicated their tumors ([1]; listed as cyclophosphamide): around 60%
percentage of CD25+FoxP3+/CD4+ in tumor-infiltrated lymphocytes ([2]; four days after administration of cyclophosphamide, from around 50%): below 30%
lymphodepletion ([2]; spleen and lymph node, tumor-bearing mice, CTX 2.5 mg i.p. day 24): transient lymphodepletion in spleen and lymph node that reverted by day 7
tumor growth delay by CTX alone in RAG1-/- mice [3]: not observed
immune response induced by CyaA-E7 [4]: did not enhance the immune response induced by CyaA-E7

COc1cccc2c1C(=O)c1c(O)c3c(c(O)c1C2=O)C[C@@](O)(C(=O)CO)C[C@@H]3O[C@H]1C[C@H](N)[C@H](O)[C@H](C)O1 [DOX, Doxorubicin]
enhancement of the effect of CyaA-E7 by DOX [1]: did not enhance the effect of CyaA-E7
enhancement of the effect of CyaA-E7 by DOX ([1]; listed as doxorubicin): had no effect

polyinosinic-polycytidylic acid [PIC]
effect on tumor growth of TLR ligand alone [1]: none of these TLR ligands administered alone had any effect on the tumor growth
survival percentage [1]: 41%
increase in tumor regression [1]: significant increase in tumor regression

polyuridine [pU]
survival percentage [1]: 41%
increase in tumor regression [1]: significant increase in tumor regression
